Results from PMC10607876, “Phenylacetyl-/Trolox- Amides: Synthesis, Sigma-1, HDAC-6, and Antioxidant Activities” (International Journal of Molecular Sciences, 2023).
Several values for one entry are separate records, joined by “and”; a condition that tells them apart may be missing. Equal entries are not always repeated.

Key:
[1] = biological target: T1, σ-2 (Rattus norvegicus, UniProt Q5U3Y7); experiment: Sigma-2 competitive radioligand displacement binding (NIMH PDSP)
T1 sequence (Q5U3Y7 1-176): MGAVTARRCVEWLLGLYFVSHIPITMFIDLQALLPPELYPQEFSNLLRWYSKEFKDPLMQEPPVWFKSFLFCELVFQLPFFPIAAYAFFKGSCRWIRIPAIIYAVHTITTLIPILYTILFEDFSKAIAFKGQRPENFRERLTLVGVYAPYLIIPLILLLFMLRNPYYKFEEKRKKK
Experimental: Sigma-1 and 2 affinity experiments (Ki values) were carried out at the National Institute of Mental Health’s Psychoactive Drug Screening Program (NIMH PDSP, UNC Chapel Hill, NC). Assay details (i.e., competitive radioligand displacement conditions, etc.) are available at https://pdsp.unc.edu/pdspweb/content/PDSP%20Protocols%20II%202013-03-28.pdf (accessed on 23 August 2023). Table 2 below indicates the Ki values determined for all compounds.

[2] = Oxygen Radical Activity Capacity (ORAC) assay; conditions: for antioxidant activities (in words): ORAC; for Slopes: slope of net AUC vs concentration (2.5-50 µM), averaged, n = 3 runs, 60 min; for TEs (Trolox equivalents): slope of sample divided by slope of Trolox, ORAC after 60 min, mean ± SD, n = 3
Experimental: Compound antioxidant capacities were determined using the Oxygen Radical Activity Capacity (ORAC) Assay Kit (catalog #ab233473, Abcam, Cambridge, MA, USA) according to the manufacturer’s protocol. Briefly, the Trolox standard (0.2 mM, 50:50 v/v, water: acetone) and each test compound (0.2 mM, 50:50 v/v, water: acetone) were tested at final concentrations ranging from 2.5 µM to 50 µM in the assay. Fluorescein (150 μL) probe solution and 25 μL of Trolox or each test compound were mixed in each well of a black 96-well microplate and incubated at 37 °C for 30 min. […] Trolox equivalents (TE) for the test compounds were obtained by directly dividing the slopes of each sample by the slope of the Trolox from its standard curve (Table 4). […] Curiously, unlike the phenolic Trolox derivatives (i.e., 3, 4, 8, 12, and 20), compound 18′s antioxidant activity can be attributed to the -NH-OH moiety.

[3] = biological target: T2, HDAC-6 (Homo sapiens, UniProt Q9UBN7); experiment: HDAC fluorescence activity assay (Reaction Biology, Howitz conditions); conditions: HDAC-6 IC50, fluorogenic acetylated lysine substrate, 10-dose IC50 mode, threefold serial dilutions
T2 sequence (Q9UBN7 1-1215): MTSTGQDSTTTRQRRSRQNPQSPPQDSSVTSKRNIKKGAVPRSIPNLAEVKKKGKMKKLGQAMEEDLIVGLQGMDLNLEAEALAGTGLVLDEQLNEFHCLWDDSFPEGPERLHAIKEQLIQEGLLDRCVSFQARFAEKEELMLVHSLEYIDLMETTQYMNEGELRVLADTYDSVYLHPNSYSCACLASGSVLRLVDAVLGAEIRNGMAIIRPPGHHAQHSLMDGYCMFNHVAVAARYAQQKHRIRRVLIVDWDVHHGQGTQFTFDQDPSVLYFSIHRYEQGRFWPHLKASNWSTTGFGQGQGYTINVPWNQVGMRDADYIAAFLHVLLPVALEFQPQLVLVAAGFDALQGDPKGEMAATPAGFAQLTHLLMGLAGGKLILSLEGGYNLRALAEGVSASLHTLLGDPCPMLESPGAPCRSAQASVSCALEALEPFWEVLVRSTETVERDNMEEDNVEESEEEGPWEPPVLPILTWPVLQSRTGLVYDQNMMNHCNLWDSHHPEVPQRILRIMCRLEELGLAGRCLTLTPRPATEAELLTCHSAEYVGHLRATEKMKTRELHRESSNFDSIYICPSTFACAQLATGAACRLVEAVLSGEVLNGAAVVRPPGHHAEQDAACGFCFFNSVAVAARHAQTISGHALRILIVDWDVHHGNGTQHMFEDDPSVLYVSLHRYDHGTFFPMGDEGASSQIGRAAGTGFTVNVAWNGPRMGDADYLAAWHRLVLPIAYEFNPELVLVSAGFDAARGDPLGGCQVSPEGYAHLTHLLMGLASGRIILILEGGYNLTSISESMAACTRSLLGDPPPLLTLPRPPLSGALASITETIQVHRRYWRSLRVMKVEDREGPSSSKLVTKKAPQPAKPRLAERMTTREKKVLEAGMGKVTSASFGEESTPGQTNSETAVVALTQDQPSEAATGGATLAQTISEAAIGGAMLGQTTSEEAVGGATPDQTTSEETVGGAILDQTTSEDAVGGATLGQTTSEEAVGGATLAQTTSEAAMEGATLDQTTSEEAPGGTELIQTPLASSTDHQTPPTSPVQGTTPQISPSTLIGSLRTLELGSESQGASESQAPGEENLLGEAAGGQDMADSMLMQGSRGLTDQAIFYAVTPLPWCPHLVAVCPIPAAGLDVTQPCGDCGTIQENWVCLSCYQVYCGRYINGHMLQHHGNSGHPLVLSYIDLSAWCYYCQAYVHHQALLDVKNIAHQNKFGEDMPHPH

## COC(=O)c1ccc(CNC(=O)Cc2ccccc2)cc1 [Compound 1, Methyl 4-((2-phenylacetamido)methyl) benzoate]
[1]
  Ki: > 10 µM

## COC(=O)c1ccc(CNC(=O)C2(C)CCc3c(C)c(O)c(C)c(C)c3O2)cc1 (stereo not shown) [Compound 2, Methyl 4-((6-hydroxy-2,5,7,8-tetramethylchromane-2-carboxamido)methyl)benzoate]
[1]
  Ki: 7.47 µM

## Cc1c(C)c2c(c(C)c1O)CCC(C)(C(=O)Nc1nc3ccccc3o1)O2 (stereo not shown) [Compound 3, N-(Benzo[d]oxazol-2-yl)-6-hydroxy-2,5,7,8-tetramethylchromane-2-carboxamide]
[1]
  Ki: > 10 µM
[2]
  antioxidant activities (in words): potent
  Slopes: 205.61 ± 4.38
  TEs (Trolox equivalents): 1.70 ± 0.04 TE

## Cc1c(C)c2c(c(C)c1O)CCC(C)(C(=O)NCc1ccc(S(N)(=O)=O)cc1)O2 (stereo not shown) [Compound 4, 6-Hydroxy-2,5,7,8-tetramethyl-N-(4-sulfamoylbenzyl) chromane-2-carboxamide]
[1]
  Ki: > 10 µM
[2]
  antioxidant activities (in words): potent
  Slopes: 155.07 ± 2.39
  TEs (Trolox equivalents): 1.28 ± 0.02 TE

## NNC(=O)c1ccc(CNC(=O)Cc2ccccc2)cc1 [Compound 5, N-(4-(Hydrazinecarbonyl)benzyl)-2-phenylacetamide]
[1]
  Ki: > 10 µM

## Cc1c(C)c2c(c(C)c1O)CCC(C)(C(=O)Nc1nc3ccccc3[nH]1)O2 (stereo not shown) [Compound 6, N-(1H-benzo[d]imidazol-2-yl)-6-hydroxy-2,5,7,8-tetramethylchromane-2-carboxamide]
[1]
  Ki: 7.49 µM

## Cc1c(C)c2c(c(C)c1O)CCC(C)(C(=O)Nc1cc3ccccc3cn1)O2 (stereo not shown) [Compound 7, 6-Hydroxy-N-(isoquinolin-3-yl)-2,5,7,8-tetramethylchromane-2-carboxamide]
[1]
  Ki: 1.5 µM

## Cc1c(C)c2c(c(C)c1O)CCC(C)(C(=O)NCc1ccc(C(=O)NO)cc1)O2 (stereo not shown) [Compound 8, 6-Hydroxy-N-(4-(hydroxycarbamoyl)benzyl)-2,5,7,8-tetramethylchromane-2-carboxamide]
[1]
  Ki: > 10 µM
[3]
  IC50: 17 nM and 17.3 nM
[2]
  antioxidant activities (in words): potent
  Slopes: 232.42 ± 8.98
  TEs (Trolox equivalents): 1.92 TE and 1.92 ± 0.07 TE

## Cc1c(C)c2c(c(C)c1O)CCC(C)(C(=O)NCc1ccc(C(=O)NN)cc1)O2 (stereo not shown) [Compound 9, N-(4-(Hydrazinecarbonyl)benzyl)-6-hydroxy-2,5,7,8-tetramethylchromane-2-carboxamide]
[1]
  Ki: > 10 µM

## Cc1c(C)c2c(c(C)c1O)CCC(C)(C(=O)Nc1cnccn1)O2 (stereo not shown) [Compound 10, 6-Hydroxy-2,5,7,8-tetramethyl-N-(pyrazin-2-yl) chromane-2-carboxamide]
[1]
  Ki: 5.59 µM

## Cc1nc(NC(=O)C2(C)CCc3c(C)c(O)c(C)c(C)c3O2)sc1C (stereo not shown) [Compound 11, N-(4,5-Dimethylthiazol-2-yl)-6-hydroxy-2,5,7,8-tetramethylchromane-2-carboxamide]
[1]
  Ki: > 10 µM

## Cc1c(C)c2c(c(C)c1O)CCC(C)(C(=O)Nc1ncc[nH]1)O2 (stereo not shown) [Compound 12, 6-Hydroxy-N-(1H-imidazol-2-yl)-2,5,7,8-tetramethylchromane-2-carboxamide]
[1]
  Ki: > 10 µM
[2]
  antioxidant activities (in words): potent
  Slopes: 151.24 ± 0.30
  TEs (Trolox equivalents): 1.25 ± 0.002 TE

## Cc1cc(NC(=O)C2(C)CCc3c(C)c(O)c(C)c(C)c3O2)no1 (stereo not shown) [Compound 13, 6-Hydroxy-2,5,7,8-tetramethyl-N-(5-methylisoxazol-3-yl)chromane-2-carboxamide]
[1]
  Ki: 6.86 µM

## Cc1c(C)c2c(c(C)c1O)CCC(C)(C(=O)N1CCN(c3ncccn3)CC1)O2 (stereo not shown) [Compound 14, (6-Hydroxy-2,5,7,8-tetramethylchroman-2-yl)(4-(pyrimidin-2-yl)piperazin-1-yl)methanone]
[1]
  Ki: 2.49 µM

## Cc1c(C)c2c(c(C)c1O)CCC(C)(C(=O)NCc1ccc3c(c1)OCO3)O2 (stereo not shown) [Compound 15, N-(Benzo[d][1,3]dioxol-5-ylmethyl)-6-hydroxy-2,5,7,8-tetramethylchromane-2-carboxamide]
[1]
  Ki: 6.98 µM

## NS(=O)(=O)c1ccc(CNC(=O)Cc2ccccc2)cc1 [Compound 16, 2-Phenyl-N-(4-sulfamoylbenzyl) acetamide]
[1]
  Ki: > 10 µM

## O=C(Cc1ccccc1)NCc1ccc(C(=O)NO)cc1 [Compound 18, N-Hydroxy-4-((2-phenylacetamido)methyl)benzamide]
[3]
  IC50: 77 nM and 77.9 nM
[2]
  antioxidant activities (in words): potent
  Slopes: 137.45 ± 1.88
  TEs (Trolox equivalents): 1.13 ± 0.02 TE

## Cc1c(C)c2c(c(C)c1O)CCC(C)(C(=O)NNC(=O)c1ccc(Cl)cc1)O2 (stereo not shown) [Compound 20, N′-(4-Chlorobenzoyl)-6-hydroxy-2,5,7,8-tetramethylchromane-2-carbohydrazide]
[2]
  antioxidant activities (in words): potent
  Slopes: 177.86 ± 3.38
  TEs (Trolox equivalents): 1.47 ± 0.03 TE

## Cc1c(C)c2c(c(C)c1O)CCC(C)(C(=O)O)O2 (stereo not shown) [Trolox, 6-hydroxy-2,5,7,8-tetramethylchroman-2-carboxylic acid]
[2]
  TEs (Trolox equivalents): 1.0 TE
